Laboratory results from PMC6100073, “Activation of Anthracene Endoperoxides in Leishmania and Impairment of Mitochondrial Functions” (Molecules : A Journal of Synthetic Chemistry and Natural …, 2018).

Tested on: LtP
Test: Uncoupling of LtP respiration in presence of oligomycin (OxoPlates)
Assay type: cell-based, Leishmania tarentolae
Settings: 38 µM Oligo; for uncoupling effect (recovery of O2 consumption in the presence of Oligo): 0.31–5.0 µM CCCP or 12.5–200.0 µM other compounds
Procedure: The uncoupling experiments using OxoPlates were carried out in analogy to oxygen consumption measurements of LtP. An oligomycin (Oligo) premix in aBHI was prepared leading to a final concentration of 38 µM oligomycin (Oligo). Each well of the second row was filled with 50 µL of aBHI. From the third row on, each well was filled with 50 µL of the Oligo premix and to the fourth row additional 50 µL Oligo premix was added. The respective amounts of the substances (Ac, AQ, AcEP1117, AcEP1118, AcEP1129, AcEP1130, CCCP) were added and a serial 1:2 dilution was performed. Measurements were carried out as described above. The oxygen consumption rates were normalized to the wells that contained only LtP. For each concentration measurements were done in triplicates.

Row | SMILES | uncoupling effect (recovery of O2 consumption in the presence of Oligo) | concentration at which regain of oxygen consumption (uncoupling) is visible (declines at higher concentrations)
1 | O=C1c2ccccc2C(=O)c2ccccc21 [AQ, anthraquinone, reference compound] | Neither Ac nor AQ displayed an uncoupling effect | 
2 | c1ccc2cc3ccccc3cc2c1 [Ac, anthracene] | Neither Ac nor AQ displayed an uncoupling effect | 
3 | c1ccc2c(c1)C1OOC2c2ccccc21 [AcEP1117, 9,10-dihydro-9,10-epidioxidoanthracene] | no strong uncoupling was observed except for AcEP1117 at 200 µM | 
4 | CC12OOC(c3ccccc31)c1ccccc12 [AcEP1129, 9-methyl-9,10-dihydro-9,10-epidioxidoanthracene] | a trend for uncoupling was observed at lower concentrations | 25 µM
